B1: DnaJB8: member of the Hsp40/DnaJ heat shock protein family, co-expressed chaperone (protein, UniProt Q8NHS0 1-232, looked up)
DnaJ homolog subfamily B …: MANYYEVLGVQASASPEDIKKAYRKLALRWHPDKNPDNKEEAEKKFKLVSEAYEVLSDSKKRSLYDRAGCDSWRAGGGASTPYHSPFDTGYTFRNPEDIFREFFGGLDPFSFEFWDSPFNSDRGGRGHGLRGAFSAGFGEFPAFMEAFSSFNMLGCSGGSHTTFSSTSFGGSSSGSSGFKSVMSSTEMINGHKVTTKRIVENGQERVEVEEDGQLKSVTVNGKEQLKWMDSK

Columns and labels:
[1] = tested on: polyQ peptides; assay: Peptidase inhibitor study in cells co-expressing DnaJB6, Western blot against polyQ; type: cell-based; settings: inhibitor in combination with DnaJB6, treated for eight hours, FIG. 8B
Experimental: (§1) Cytosolic extracts were generated by lysing cells with 0.1% Triton X-100 for 30 minutes at 4° C., and supernatant was used after spinning down the lysate. 20 μg of cytosolic protein lysates were separated by 18% SDS-PAGE and transferred to Protan nitrocellulose membranes. Membranes were blocked in 5% dry milk in TBS containing 0.3% tween and probed with anti-Polyglutamine 1C2 (MAB1574, Millipore). Preparation of SDS-soluble and SDS-insoluble protein fractions was described before (example 1 and Carra et al., 2008). For peptidase inhibitory studies, transfected cells were treated for eight hours with different peptidase inhibitors before lysates were generated for Western blotting.
To elucidate which clearance pathway led to the degradation of the polyQ peptides, several inhibitors were used in combination with DnaJB6 and DnaJB8. Cysteine proteases were inhibited by E-64, aspartyl proteases by pepstatin A, metalloproteases by bestatin, serine proteases by phenylmethylsulfonyl (PMSF), proteasomes were inhibited by MG-132 and macroautophagy was inhibited by 3-methyladenine (3-MA).

[2] = tested on: polyQ peptides derived from GFP-Ub-Q65; assay: Western blot against polyQ (1C2) of cells expressing GFP-Ub-Q65 with altered TPPII activity; type: cell-based; settings: for polyQ peptide levels: cells expressing GFP-Ub-Q65, TPPII co-expressed or inhibited, FIG. 10 panel A
Experimental: as §1
Large polyQ-peptides are preferably cleaved by endo-peptidases, as a few cleavages will result in smaller polyQ peptides below the disease-threshold that can be targeted by recycling amino-peptidases. To measure endo-peptidase activity against glutamines, we designed a probe containing 8 glutamines, flanked by a fluorophore (left) and a quencher (right). When the glutamines are cleaved, the quencher is released from the fluorophore, leading to fluorescence. Since the termini themselves are protected against exo-peptidases, only endo-peptidases can handle the peptide by cleaving the Q stretch. […] Since this experiment was performed with a small Q peptide, we next examined whether TPPII was able to prevent accumulation and aggregation of polyQ peptides derived from GFP-Ub-Q65. […] Some additional high molecular weight bands were present, representing oligomeric complexes. […] When testing two TPPII variants that have an altered conformation and lowered endo- peptidase activity, the levels of polyQ peptides (and resulting aggregates) increased again, showing that TPPII complex formation affects polyQ peptide degradation. […] This was achieved by either co-expressing TPPII or adding the specific inhibitor of TPPII, butabindide. […] Similarly, polyQ fragments generated by the proteasome upon degradation of polyQ expanded proteins were targeted by TPPII. […]

[3] = tested on: polyQ peptides (Q65); assay: SDS-soluble and SDS-insoluble fractions stained against polyQ; type: cell-based; settings: co-expression with Q65 peptides; for amount of polyQ peptides in the SDS-insoluble fraction: FIG. 8A
Experimental: Cytosolic extracts were generated by lysing cells with 0.1% Triton X-100 for 30 minutes at 4° C., and supernatant was used after spinning down the lysate. 20 μg of cytosolic protein lysates were separated by 18% SDS-PAGE and transferred to Protan nitrocellulose membranes. Membranes were blocked in 5% dry milk in TBS containing 0.3% tween and probed with 1:1000 anti-GFP (Molecular Probes), 1:100 anti-Ub (SIGMA) or the anti-Polyglutamine 1C2 (MAB1574, Millipore). Polyclonal Horseradish Peroxidase (HRP) conjugated secondary antibodies, anti-rabbit (Sigma) or anti-mouse (DAKO) were used 1:10.000 to detect the primary antibodies via Lumi-lightPLUS westernblotting substrate (Roche). Preparation of SDS-soluble and SDS-insoluble protein fractions was described before (Carra et al., 2008). Briefly, cells were trypsinized, homogenized, and heated for 10 min at 99° C. in sample buffer (70 mM Tris pH 6.8, 1.5% SDS, 20% glycerol) supplemented with 50 mM DTT 72 hours after transfection. Cell lysates were centrifuged for at least 30 minutes at 14.000 rpm at room temperature. Supernatants were used as SDS-soluble fraction to which 0.05% bromophenol blue was added. Pellets represented SDS-insoluble fractions and were dissolved in 100% formic acid, incubated 30 minutes at 37° C., lyophilized overnight in a speed vac (Eppendorf), and resuspended in a ¼ of the volume of sample buffer containing 0.05% bromophenol blue. Samples were separated on either 18% SDS-PAGE (anti-polyQ), or 12.5% SDS-PAGE (anti-GFP) and further treated as Western blots.
as §1, with “For peptidase inhibitory studies, transfected cells were treated for eight hours with different peptidase inhibitors before lysates were generated for Western blotting.” left out

[4] = tested on: HEK293T cells; assay: Scoring of cells with fluorescent aggregates by fluorescence microscopy; type: cell-based, Human
Experimental: Human embryonic kidney cells (HEK293T) and Mel JuSo fibroblast cells where cultured in IMDM (GIBCO) supplemented with 10% FCS and penicillin/streptomycin/L-glutamine. The cells where transiently transfected with Fugene6 (Roche) and analyzed at indicated time-points after transfection. Mouse STHdh^+/+(Q7) cells (kindly provided by Marcy MacDonald) (Trettel et al, 2000) and N2A neuroblastoma cells were cultured in DMEM supplemented with 10% FCS and penicillin/streptomycin/L-glutamine. Neuronal cells where transiently transfected with Lipofectamine 2000 (Invitrogen). Mouse STHdh^+/+(Q7) cells were incubated at 32° C. For toxicity measurements, N2A cells were analyzed by FACS LSRII for GFP fluorescence 24 or 48 hours after transfection, and the percentage of GFP-positive cells was quantified.
HEK293T cells were transfected with indicated constructs and the percentages of aggregates were scored using an inverted fluorescence microscope (Leica DMR). For imaging, Mel Juso cells were transiently transfected with indicated constructs and images where obtained using a confocal microscope (Leica SP2) using a 63× objective. Note that some pictures show ‘over-exposed’ fluorescent aggregates in order to visualize non-sequestered, cytoplasmic staining. […]

Molecule	polyQ peptide levels despite DnaJB6 [1]	polyQ peptide levels [2]	amount of polyQ peptides in the SDS-insoluble fraction [3]	aggregation on co-expression with GFP-Ub-Q65 [4]	also measured
O=S(=O)(F)Cc1ccccc1 [PMSF, phenylmethylsulfonyl]	re-appearance of polyQ peptides				
CCCCNC(=O)[C@@H]1Cc2ccccc2N1C(=O)[C@@H](N)CC [butabindide, reference compound]		accumulation of polyQ peptides			
DnaJB6: member of the Hsp40/DnaJ heat shock protein family, co-expressed chaperone			remarkably reduced	considerable decrease in aggregation	polyQ peptides in the SDS-soluble fraction ([3]; FIG. 8A and B): marked decrease
CC(C)C[C@H](NC(=O)[C@H]1O[C@@H]1C(=O)O)C(=O)NCCCCN=C(N)N [E-64]	re-appearance of polyQ peptides				
tripeptidyl peptidase II [TPPII]		reduced polyQ levels			aggregated and low-molecular weight Q65 peptide levels ([2]; co-expression with GFP-Ub-Q65, immunoblot 1C2, FIG. 7): decrease in both aggregated and low-molecular weight Q65 peptides
B1			remarkably reduced	considerable decrease in aggregation	
